Assay: Compound was tested for toxicity (lethal dose) in male white swiss mice
Format: organism-based
Details: mouse, in vivo

CC(N)(Cc1cc(O)c(O)cc1O)C(=O)O (racemic)
LD50: 289 mg/kg

CC(N)Cc1cc(O)c(O)cc1O (racemic)
LD50: 320 mg/kg

CC(N)Cc1ccc(O)c(O)c1 (racemic)
LD50: 576 mg/kg

CC(N)(Cc1ccc(O)c(O)c1)C(=O)O (racemic) [METHYLDOPA (RACEMIC)]
LD50: 1320 mg/kg

C[C@](N)(Cc1ccc(O)c(O)c1)C(=O)O [METHYLDOPA]
LD50: 1890 mg/kg

— ChEMBL document CHEMBL1121572, “Synthetic and preliminary hemodynamic and whole animal toxicity studies on (R,S)-, (R)-, and (S)-2-methyl-3-(2,4,5-trihydroxyphenyl)alanine” (J Med Chem, 1980)
